Like-named read-outs stand apart in the source and are kept apart here.
Key:
HCC1806 cells = assay: cells; format: cell-based
From the text: (§1) Significance was defined as p<0.05.

MCF10A cells = system: MCF10A cells
Experimental: Cells were authenticated by the supplier (http://www.ATCC.org) and cultured as recommended by ATCC for less than six months from the time of resuscitation. HCC1806, HCC1428 and T47D cells stably expressing triple hemagglutinin (HA)-tagged CREB3L1 (HA-CREB3L1) have been described and characterized previously.
Cells were allowed to attach and grow at 37° C. and 5% CO2. The following day the media was carefully removed from each well and replaced with drug-containing media in triplicate wells, again using the ASSIST PLUS. After 4 days of drug treatment cells were stained with Hoechst and ImageIT® Dead Green to quantify total and live cells as detailed below.
Images of each well of the 384-well plates were acquired using a Thermo Scientific® CellInsight® CX7 High Content Screening (HCS) Platform. Nine fields of view were captured using a 10×(0.4 NA) air objective lens. Images were analyzed using Thermo Scientific HCS Studio® 3 Cell Analysis Software using the Spot Detector bio-application (Cellomics®). Total cells were identified and counted by their Hoechst-stained nuclei at 386 nm (blue) channel 1 (Ch1) and dead cells were quantified from the ImageIT® Dead Green on the 485 nm wavelength (green) channel 2 (Ch2). […] The test well total live cell count was divided by the average of the corresponding solvent control total live cell count, giving the percentage cell viability (% viability). The mean±standard error of the mean (SEM) of the % viability of each set of triplicate wells was determined.
Drug titration experiments were carried out as described for the secondary drug screens, except a range of drug concentrations were tested. […] EC values were determined using PRISM software (GraphPad, v9.2.0) using non-linear curve fit. A student's t-test was used to determine statistically significant differences between the EC values for the two cell lines. Significance was defined as p<0.05.

HCC38 = assay: Cell viability drug titration (EC50), 4 days of drug treatment; format: cell-based; settings: Homo sapiens
From the text: as §1

HCC1428 + HA-CREB3L1 = assay: as above; format: cell-based; settings: Homo sapiens
From the text: as §1

MDA-MB-436 = assay: as above; format: cell-based; settings: Homo sapiens
From the text: as §1

Hs578T = assay: as above; format: cell-based; settings: Homo sapiens, Hs-578T, 96 h
From the text: as §1

ZR-75-1 = assay: as above; format: cell-based; settings: Homo sapiens
From the text: as §1

HCC1806+HA-CREB3L1 cells = assay: as above; format: cell-based; settings: Homo sapiens, 96 h, single agent
From the text: as §1

HCC1395 = assay: as above; format: cell-based; settings: Homo sapiens
From the text: as §1

MCF7 = assay: as above; format: cell-based; settings: Homo sapiens
From the text: as §1

MDA-MB-157 = assay: as above; format: cell-based; settings: Homo sapiens, MDA-MB-157, 96 h
From the text: as §1

HCC1428 = assay: as above; format: cell-based; settings: for drug sensitivity of HCC1428 as compared to the corresponding CREB3L1-expressing cells: HCC1428 vs HCC1428 + HA-CREB3L1; for EC50: Homo sapiens
From the text: as §1

T47D = assay: as above; format: cell-based; settings: Homo sapiens, 96 h
From the text: as §1

BT549 = assay: as above; format: cell-based; settings: Homo sapiens, BT-549, 96 h
From the text: as §1

T47D + HA-CREB3L1 = assay: as above; format: cell-based; settings: Homo sapiens, 96 h
From the text: as §1

TNBC = settings: combined with docetaxel, reference [23]; cited from earlier work
[1] = system: MDA-MB-231 TNBC xenografts; settings: cited from earlier work
[2] = system: anti-apoptotic proteins, including MCL-1, BCL-2 and surviving; settings: several TNBC cell lines; reference [21]; cited from earlier work
[3] = Homo sapiens, HCC1806, 96 h, HCC1806 parental (CREB3L1-deficient TNBC), single agent, 4 days of drug treatment, read-out: EC50
[4] = 96 h, HCC38 parental (TNBC), single agent, 4 days, read-out: EC50
[5] = 96 h, HCC1428 + HA-CREB3L1, single agent, 4 days, read-out: EC50
[6] = 96 h, MDA-MB-436 parental (TNBC), single agent, 4 days, read-out: EC50
[7] = Hs578T parental (TNBC), single agent, 4 days, read-out: EC50
[8] = 96 h, ZR-75-1 parental (Luminal A, ER+), single agent, 4 days, read-out: EC50
[9] = 96 h, HCC1395 parental (TNBC), single agent, 4 days, read-out: EC50
[10] = 96 h, MCF7 parental (Luminal A, ER+), single agent, 4 days, read-out: EC50
[11] = 96 h, HCC1428 parental (Luminal A, ER+), single agent, 4 days, read-out: EC50
[12] = T47D parental (Luminal A, ER+), single agent, 4 days, read-out: EC50
[13] = BT549 parental (TNBC), single agent, 4 days, read-out: EC50
[14] = T47D + HA-CREB3L1, single agent, 4 days, read-out: EC50

Row | EC50 (HCC1806+HA-CREB3L1 cells) [µM] | Structure (SMILES) | EC50 (HCC1806 cells; [3]) [µM] | cytotoxicity towards CREB3L1-deficient HCC1806 as compared to HCC1806+HA-CREB3L1 cells (HCC1806 cells; drug titration, 4 days, FIG. 2) | cytotoxicity towards non-tumorigenic MCF10A cells as compared to HCC1806 cells (MCF10A cells) | EC50 (HCC38; [4]) [µM] | EC50 (HCC1428 + HA-CREB3L1; [5]) [µM] | EC50 (MDA-MB-436; [6]) [µM] | EC50 (Hs578T; [7]) [µM] | EC50 (ZR-75-1; [8]) [µM] | EC50 (HCC1395; [9]) [µM] | EC50 (MCF7; [10]) [µM] | drug sensitivity of HCC1428 as compared to the corresponding CREB3L1-expressing cells (HCC1428) | EC50 (HCC1428; [11]) [µM] | EC50 (T47D; [12]) [µM] | EC50 (BT549; [13]) [µM] | EC50 (T47D + HA-CREB3L1; [14]) [µM] | other results
1 | 0.017 ± 0.006 | COc1cccc2c1C(=O)c1c(O)c3c(c(O)c1C2=O)C[C@@](O)(C(=O)CO)C[C@@H]3O[C@H]1C[C@H](N)[C@H](O)[C@H](C)O1 [Doxorubicin, doxorubicin] | 0.013 ± 0.004 |  |  |  |  |  |  |  |  |  |  |  |  |  |  | EC50 (HCC1806 cells; HCC1806 parental (CREB3L1-deficient TNBC), single agent, 4 days of drug treatment, read-out: EC50): 0.0132 µM
2 |  | CC(=O)O[C@H]1C[C@H](O[C@H]2[C@@H](O)C[C@H](O[C@H]3[C@@H](O)C[C@H](O[C@H]4CC[C@@]5(C)[C@H](CC[C@@H]6[C@@H]5C[C@@H](O)[C@]5(C)[C@@H](C7=CC(=O)OC7)CC[C@]65O)C4)O[C@@H]3C)O[C@@H]2C)O[C@H](C)[C@H]1O[C@@H]1O[C@H](CO)[C@@H](O)[C@H](O)[C@H]1O [Lanatoside C, lanatoside C] |  |  | very sensitive |  |  |  |  |  |  |  | the opposite was true |  |  |  |  | cytotoxicity towards CREB3L1-deficient HCC1806 as compared to HCC1806+HA-CREB3L1 cells (HCC1806 cells): showed a preference for killing the more metastatic CREB3L1-deficient HCC1806 TNBC cells; EC50 (HCC1806 cells; Homo sapiens, HCC1806, 96 h): 0.143 µM; EC50 (HCC38; HCC38, 96 h): 0.3 ± 0.1 µM; EC50 (HCC1428 + HA-CREB3L1; HCC1428, 96 h): 0.032 ± 0.008 µM; EC50 (MDA-MB-436; MDA-MB-436, 96 h): 0.46 ± 0.25 µM; EC50 (Hs578T): 1 ± 0.8 µM; EC50 (ZR-75-1; ZR-75-1, 96 h): 0.65 ± 0.51 µM; EC50 (HCC1395; HCC1395, 96 h): 0.51 ± 0.3 µM; EC50 (MCF7; MCF7, 96 h): 0.45 ± 0.49 µM; EC50 (MDA-MB-157): 0.55 ± 0.24 µM; EC50 (HCC1428; HCC1428, 96 h): 0.035 ± 0.008 µM; EC50 (T47D; T47D): 0.5 ± 0.05 µM; EC50 (BT549): 0.042 ± 0.012 µM; EC50 (T47D + HA-CREB3L1; T47D): 0.089 ± 0.034 µM
3 | 0.0012 ± 0.0004 | CC(=O)O[C@H]1C(=O)[C@@]2(C)[C@H]([C@H](OC(=O)c3ccccc3)[C@]3(O)C[C@H](OC(=O)[C@H](O)[C@@H](NC(=O)c4ccccc4)c4ccccc4)C(C)=C1C3(C)C)[C@]1(OC(C)=O)CO[C@@H]1C[C@@H]2O [Paclitaxel, (2α,4α,5β,7β,10β,13α)-4, 10-Bis(acetyloxy)-13-{[(2R,3S)-3-(benzoylamino)-2-hydroxy-3-phenylpropanoyl]oxy}-1,7-dihydroxy-9-oxo-5,20-epoxytax-11-en-2-yl benzoate] | 0.0012 ± 0.0005 |  |  | 0.0024 |  |  | 0.0074 |  | 0.012 |  |  |  |  |  |  | 
4 |  | Cc1c(-c2c(-c3ccc(F)o3)sc3ncnc(O[C@H](Cc4ccccc4OCc4ccnn4CC(F)(F)F)C(=O)O)c23)ccc(OCCN2CCN(C)CC2)c1Cl [S63845] |  |  |  |  |  |  |  |  |  |  |  |  |  |  |  | synergistic activity with docetaxel (TNBC): synergistic activity
5 | 1.3 ± 0.49 | CC(=O)c1c(C)c2cnc(Nc3ccc(N4CCNCC4)cn3)nc2n(C2CCCC2)c1=O [Palbociclib Isethionate, palbociclib isethionate] | 0.5 | showed a preference for killing the more metastatic CREB3L1-deficient HCC1806 TNBC cells | very sensitive | 0.21 ± 0.07 | 0.16 ± 0.25 | 17 ± 14 | 3.2 ± 1.4 | 0.71 ± 0.35 | 4 ± 2 | 4.4 ± 3.5 |  | 0.021 ± 0.015 | 13 ± 9.8 | 12.6 ± 4.8 | 7.2 ± 9.2 | 

Row | Structure (SMILES) | EC50 (HCC1806+HA-CREB3L1 cells) [µM] | EC50 (HCC1806 cells; [3]) [µM] | cytotoxicity towards CREB3L1-deficient HCC1806 as compared to HCC1806+HA-CREB3L1 cells (HCC1806 cells; drug titration, 4 days, FIG. 2) | cytotoxicity towards non-tumorigenic MCF10A cells as compared to HCC1806 cells (MCF10A cells) | EC50 (HCC38; [4]) [µM] | EC50 (HCC1428 + HA-CREB3L1; [5]) [µM] | EC50 (MDA-MB-436; [6]) [µM] | EC50 (Hs578T; [7]) [µM] | EC50 (ZR-75-1; [8]) [µM] | EC50 (HCC1395; [9]) [µM] | EC50 (MCF7; [10]) [µM] | drug sensitivity of HCC1428 as compared to the corresponding CREB3L1-expressing cells (HCC1428) | EC50 (HCC1428; [11]) [µM] | EC50 (T47D; [12]) [µM] | EC50 (BT549; [13]) [µM] | EC50 (T47D + HA-CREB3L1; [14]) [µM] | other results
6 | Nc1nc(Cl)nc2c1ncn2[C@H]1C[C@H](O)[C@@H](CO)O1 [Cladribine, cladribine] | 0.182 ± 0.06 | 0.092 | showed a preference for killing the more metastatic CREB3L1-deficient HCC1806 TNBC cells | Little or no cytotoxicity | 0.065 ± 0.056 | 2.2 ± 1.7 | 0.66 ± 0.18 | 5.7 ± 1.2 | 0.75 ± 0.35 | 10.1 ± 1.2 | 3.4 ± 2.1 | increased drug sensitivity | 0.74 ± 0.33 | 9.6 ± 1.8 | 0.178 ± 0.084 | 1.8 ± 1.3 | EC50 (MDA-MB-157; read-out: EC50): 5 ± 4.3 µM
7 | COC(=O)C[C@](O)(CCCC(C)(C)O)C(=O)O[C@@H]1C(OC)=C[C@]23CCCN2CCc2cc4c(cc2[C@H]13)OCO4 [Homoharringtonine, 1-((1S,3aR,14bS)-2-Methoxy-1,5,6,8,9,14b-hexahydro-4H-cyclopenta(a)(1,3)dioxolo(4,5-h)pyrrolo (2,1-b)(3)benzazepin-1-yl) 4-methyl (2R)-2-hydroxy-2-(4-hydroxy-4-methylpentyl)butanedioate] | 0.042 ± 0.007 | 0.029 | showed a preference for killing the more metastatic CREB3L1-deficient HCC1806 TNBC cells | similar | 0.058 ± 0.01 | 0.01 ± 0.003 | 0.033 ± 0.036 | 0.042 ± 0.024 | 0.117 ± 0.035 | 0.104 ± 0.031 | 0.018 ± 0.009 | the opposite was true | 0.009 ± 0.003 | 0.4 ± 0.18 | 0.089 ± 0.01 | 0.088 ± 0.055 | tumor growth ([1]; MDA-MB-231 TNBC xenografts, mice, reference [21]): reduced tumor growth; general toxicity for the mice ([1]; mouse, in vivo): without general toxicity; expression of anti-apoptotic proteins, including MCL-1, BCL-2 and surviving [2]: rapidly reduce the expression; EC50 (MDA-MB-157; read-out: EC50): 0.0075 ± 0.0012 µM
